Assay results as given in patent US11692004B2, “Substituted pyrazole compound, preparation method therefor, pharmaceutical composition and medical use thereof” (JIANGSU VANGUARD PHARMACEUTICAL CO., LTD., priority 2018, dated 2023).

How the values were obtained:
[1] = test system: PC12 cells; assay: In-vitro neuroprotection-I (H2O2 injury, MTT); format: cell-based; details: Rattus norvegicus, PC-12, 48 h compound, then 200 μM H2O2 24 h, MTT survival rate
Protocol: All samples were made into 60 mM stock solution by DMSO, which were 200 times diluted to 300 μM by medium. And the final concentration was further diluted into different concentrations by media.
Control: Normal cell-plating and same cell medium as other group. 24 hours later, the medium was discarded. Incubate the cell in new media for 24 hours. No compound and hydrogen peroxide treatment. Other steps were the same as the sample test as mentioned below did.
Blank: no cell plating, cell medium, and other steps were the same as the sample test as mentioned below did.
(§1) After resuscitating, the PC12 cells were cultured in RPMI-1640 containing 10% horse serum and 5% Fetus Bovine Serum (FBS) under 5% CO2 at 37° C. for two weeks. The medium was changed every other day. The compounds were diluted into solutions of 12.5, 25, 50, 100, 200, 300 μM with culture medium (except that examples 33-45 with additional solutions of 400 μM and 500 μM). The PC 12 cells were seeded into a 96-well plate at a density of 8×10^3 cells/well and cultured in a 37° C., 5% CO2 incubator for 24 hours. Removed the medium, the cells were added with the compound solutions of different concentrations as test solutions for another 48 h incubation in a 37° C., 5% CO2 incubator. After the incubation, apart from the blank and control groups, the wells (including 0 μM drug group) were added to the medium-prepared 200 μM H2O2, and continued for another 24 h incubation in a 37° C., 5% CO2 incubator.
After the incubation, the wells were added with 20 μL 5 mg/mL MTT and incubated for 4 hours at 37° C. Carefully removed the medium and added 150 μL DMSO. The plates were placed on an enzyme-labeled instrument and vibrated for 5 min. The absorbance Atest solution were obtained at 490 nm with the Ablank of the well without cells and the Acontrol of the well with untreated cells. The survival rate of the cells in every well by the formula survival rate (%)=(Atest solution−Ablank)/(Acontrol−Ablank)*100%.

[2] = Cytotoxic test (MTT); format: cell-based; details: rat, PC12 cells, 48 h incubation
Protocol: as §1, with “(except” for “(except that”, “PC12” for “PC 12”, “1.2×10^4” for “8×10^3”, “Remove” for “Removed”, “incubator.” for “incubator. After the incubation, apart from the blank and control groups, the wells (including 0 μM drug group) were added to the medium-prepared 200 μM H2O2, and continued for another 24 h incubation in a 37° C., 5% CO2 incubator.”
After the incubation, the wells were added with 20 μL 5 mg/mL MTT and incubated for 4 hours at 37° C. Carefully removed the medium and added 150 μL DMSO. The plates were placed on an enzyme-labeled instrument and vibrated for 5 min. The absorbance Atest solution were obtained at 490 nm with the Ablank of the well without cells and the Acontrol of the well with untreated cells. The survival rates of the cells in every well were calculated by the formula as Survival rate (%)=(Atest solution−Ablank)/(Acontrol−Ablank)*100%

[3] = test system: MCAO model (middle cerebral artery ischemia-reperfusion); assay: In vivo drug efficacy test of MCAO model; details: SD rats, MCAO 2 h then reperfusion, tail vein infusion 30 min; for Cerebral infarction area (%): TTC staining, infarct area to whole brain area; for Improvements of nerve function (%): score at 24 h versus model control

| Structure (SMILES) | EC50 [1] | IC50 at 48 h [2] | Cerebral infarction area (%) [3] | Improvements of nerve function (%) [3] |
| --- | --- | --- | --- | --- |
| CC(=O)OC(C)Oc1cc(C)nn1-c1ccccc1 (centres unmarked) [Compound 1] | 66.4 µM | – | – | – |
| Cc1cc(OC(C)OC(=O)C(C)C)n(-c2ccccc2)n1 (centres unmarked) [Compound 3, 1-(3-methyl-1-phenylpyrazole) oxyethyl isobutyrate] | 98 µM | > 300 µM | – | – |
| Cc1cc(OC(C)OC(=O)C(C)(C)C)n(-c2ccccc2)n1 (centres unmarked) [Compound 4, 1-(3-methyl-1-phenylpyrazole) oxyethyl pivalate] | 69.5 µM | > 300 µM | – | – |
| CCCCCCCC(=O)OC(C)Oc1cc(C)nn1-c1ccccc1 (centres unmarked) [Compound 5, 1-(3-methyl-1-phenylpyrazole)oxyethyl octanoate] | – | > 300 µM | – | – |
| CCCCCCCCCCCCCCCCCC(=O)OC(C)Oc1cc(C)nn1-c1ccccc1 (centres unmarked) [Compound 6] | 56.8 µM | – | – | – |
| Cc1cc(OC(C)OC(=O)c2ccccc2)n(-c2ccccc2)n1 (centres unmarked) [Compound 7, 1-(3-methyl-1-phenylpyrazole) oxyethyl benzoate] | 88.9 µM | > 300 µM | – | – |
| Cc1cc(OC(C)OC(=O)Cc2ccccc2)n(-c2ccccc2)n1 (centres unmarked) [Compound 8] | 100 µM | – | – | – |
| Cc1cc(OC(C)OC(=O)CCCc2ccccc2)n(-c2ccccc2)n1 (centres unmarked) [Compound 9, 1-(3-methyl-1-phenylpyrazole)oxyethyl phenylbutyrate] | 120 µM | > 300 µM | 19.8% | 16.0% |
| Cc1cc(OC(C)OC(=O)C2CC2)n(-c2ccccc2)n1 (centres unmarked) [Compound 10] | 55.7 µM | – | – | – |
| Cc1cc(OC(C)OC(=O)C2CCCCC2)n(-c2ccccc2)n1 (centres unmarked) [Compound 12] | 89 µM | – | – | – |
| Cc1cc(OCOC(=O)C(C)(C)C)n(-c2ccccc2)n1 [Compound 13, (3-methyl-1-phenylpyrazol-5-) oxymethyl pivalate] | 110 µM | 252 µM | 17.5% | 17.2% |
| Cc1cc(OCOC(=O)C(C)C)n(-c2ccccc2)n1 [Compound 14, (3-methyl-1-phenylpyrazol-5-) oxymethyl isobutyrate] | 45.2 µM | – | – | – |
| CCCCCCCC(=O)OCOc1cc(C)nn1-c1ccccc1 [Compound 15, (3-methyl-1-phenylpyrazol-5-) oxymethyl octanoate] | 67.2 µM | – | 20.0% | 15.9% |
| Cc1cc(OCOC(=O)CCCc2ccccc2)n(-c2ccccc2)n1 [Compound 16, (3-methyl-1-phenylpyrazol-5-) oxymethyl phenylbutyrate] | 48 µM | 234 µM | 19.9% | 16.2% |
| Cc1cc(OCOC(=O)c2cccnc2)n(-c2ccccc2)n1 [Compound 17, (3-methyl-1-phenylpyrazol-5-) oxymethyl nicotinate] | 94.9 µM | > 300 µM | – | – |
| Cc1cc(OCOC(=O)c2ccccc2)n(-c2ccccc2)n1 [Compound 18, (3-methyl-1-phenylpyrazol-5-) oxymethyl benzoate] | 75 µM | > 300 µM | – | – |
| Cc1cc(OCOC(=O)c2ccccc2O)n(-c2ccccc2)n1 [Compound 19, (3-methyl-1-phenylpyrazol-5-) oxymethyl-(2-hydroxy) benzoate] | – | > 300 µM | – | – |
| CCOC(=O)Oc1ccccc1C(=O)OCOc1cc(C)nn1-c1ccccc1 [Compound 21, (3-methyl-1-phenylpyrazole-5-) oxymethyl-(2-ethoxycarbonyloxy) benzoate] | 82.1 µM | – | – | – |
| Cc1cc(OCOC(=O)c2ccccc2OC(=O)C(C)C)n(-c2ccccc2)n1 [Compound 22, (3-methyl-1-phenylpyrazol-5-)oxymethyl-(2-isobutyryloxy)benzoic acid] | 103 µM | – | – | – |

| Structure (SMILES) | EC50 [1] | IC50 at 48 h [2] | Cerebral infarction area (%) [3] | Improvements of nerve function (%) [3] |
| --- | --- | --- | --- | --- |
| Cc1cc(OCOC(=O)c2cccc(N(C)C)c2O)n(-c2ccccc2)n1 [Compound 23, (3-methyl-1-phenylpyrazol-5-) oxymethyl-(2-hydroxy-3-N,N-dimethyl)benzoate] | 124 µM | – | – | – |
| CCOC(=O)Oc1ccc(N(C)C)cc1C(=O)OCOc1cc(C)nn1-c1ccccc1 [Compound 25, (3-methyl-1-phenylpyrazole-5-) oxymethyl-(2-ethoxycarbonyloxy-5-N,N-dimethyl)benzoic Acid] | 59.3 µM | > 300 µM | – | – |
| CC(=O)OCOc1cc(C)nn1-c1ccccc1 [Compound 26] | 54.8 µM | > 300 µM | – | – |
| Cc1cc(OCOC(=O)C2CC2)n(-c2ccccc2)n1 [Compound 28] | 85.9 µM | – | – | – |
| Cc1cc(OCOC(=O)C2CCCCC2)n(-c2ccccc2)n1 [Compound 30] | 77.2 µM | – | – | – |
| Cc1cc(OCOC(=O)Cc2ccccc2)n(-c2ccccc2)n1 [Compound 31] | 91.2 µM | – | – | – |
| CCCCCCCCCCCCCCCCCC(=O)OCOc1cc(C)nn1-c1ccccc1 [Compound 32] | 80.7 µM | > 300 µM | – | – |
| CC(=O)NCOc1cc(C)nn1-c1ccccc1 [Compound 41, N-((1-phenyl-3-methyl-1H-pyrazol-5-yl)oxy) methylacetamide] | 55.1 µM | – | – | – |
| CCC(=O)NCOc1cc(C)nn1-c1ccccc1 [Compound 42, N-((1-phenyl-3-methyl-1H-pyrazol-5-yl)oxy) methyl propionamide] | 75.4 µM | > 300 µM | 19.7% | 15.9% |
| Cc1cc(OCNC(=O)C(C)C)n(-c2ccccc2)n1 [Compound 43, N-((1-phenyl-3-methyl-1H-pyrazol-5-yl)oxy) methylisobutyramide] | 58.1 µM | – | 19.8% | 16.1% |
| Cc1cc(OCNC(=O)C(C)(C)C)n(-c2ccccc2)n1 [Compound 44, N-((1-phenyl-3-methyl-1H-pyrazol-5-yl)oxy) methyltrimethylacetamide] | 77.9 µM | – | – | – |
| Cc1cc(OCNC(=O)C2CC2)n(-c2ccccc2)n1 [Compound 45, N-((1-phenyl-3-methyl-1H-pyrazol-5-yl)oxy) methylcyclopropylformamide] | 75.3 µM | – | – | – |
| Cc1cc(OCNC(=O)C2CCCC2)n(-c2ccccc2)n1 [Compound 46, N-((1-phenyl-3-methyl-1H-pyrazol-5-yl)oxy) methylcyclopentylformamide] | 90.1 µM | – | – | – |
| Cc1cc(OCNC(=O)C2CCCCC2)n(-c2ccccc2)n1 [Compound 47, N-((1-phenyl-3-methyl-1H-pyrazol-5-yl)oxy) methylcyclohexanecarboxamide] | 53.6 µM | 269 µM | – | – |
| Cc1cc(OCNC(=O)c2ccccc2)n(-c2ccccc2)n1 [Compound 48, N-((1-phenyl-3-methyl-1H-pyrazol-5-yl)oxy) methylbenzamide] | 123 µM | – | – | – |
| Cc1cc(OCNC(=O)Cc2ccccc2)n(-c2ccccc2)n1 [Compound 49, N-((1-phenyl-3-methyl-1H-pyrazol-5-yl)oxy) methylphenylacetamide] | – | > 300 µM | – | – |
| Cc1cc(OCNC(=O)CCCc2ccccc2)n(-c2ccccc2)n1 [Compound 50, N-((1-phenyl-3-methyl-1H-pyrazol-5-yl)oxy) methylphenylbutyramide] | 101 µM | – | – | – |
| CCCCCCCCCCCCCCCCCC(=O)NCOc1cc(C)nn1-c1ccccc1 [Compound 52, N-((1-phenyl-3-methyl-1H-pyrazol-5-yl)oxy)methyl stearamide] | 78.6 µM | – | – | – |
